In the assay the test system is Rattus norvegicus. In words: In vivo hypocalcemic activity measuring the hormone-induced decrease of blood calcium levels in rats. The assay is classed as functional.

Structures are written as SMILES. Residues, ends and D or L forms follow the SMILES beside them.

In the case of `CC(C)C[C@H](NC(=O)[C@H](CCCCN)NC(=O)CNC(=O)[C@H](CC(C)C)NC(=O)[C@@H](NC(=O)[C@@H]1CSSC[C@H](N)C(=O)N[C@@H](CO)C(=O)N[C@@H](CC(N)=O)C(=O)N[C@@H](CC(C)C)C(=O)N[C@@H](CO)C(=O)N[C@@H]([C@@H](C)O)C(=O)N1)C(C)C)C(=O)N[C@@H](CO)C(=O)N[C@@H](CCC(N)=O)C(=O)N[C@@H](CCC(=O)O)C(=O)N[C@@H](CC(C)C)C(=O)N[C@@H](Cc1c[nH]cn1)C(=O)N[C@@H](CCCCN)C(=O)N[C@@H](CC(C)C)C(=O)N[C@@H](CCC(N)=O)C(=O)N[C@@H](Cc1ccc(O)cc1)C(=O)N1CCC[C@H]1C(=O)N[C@@H](CCCN=C(N)N)C(=O)N[C@H](C(=O)N[C@@H](CC(N)=O)C(=O)N[C@H](C(=O)NCC(=O)N[C@@H](CO)C(=O)NCC(=O)N[C@H](C(=O)N1CCC[C@H]1C(N)=O)[C@@H](C)O)[C@@H](C)O)[C@@H](C)O` (HELM PEPTIDE1{C.S.N.L.S.T.C.V.L.G.K.L.S.Q.E.L.H.K.L.Q.Y.P.R.T.N.T.G.S.G.T.P.[am]}$PEPTIDE1,PEPTIDE1,1:R3-7:R3$$$V2.0), the Hypocalcemic activity is recorded as 5500 IU mg-1. For the molecule `CC(C)C[C@H](NC(=O)[C@H](CCCCN)NC(=O)CNC(=O)[C@H](CC(C)C)NC(=O)[C@@H](NC(=O)[C@@H]1CSSC[C@H](N)C(=O)N[C@@H](CO)C(=O)N[C@@H](CC(N)=O)C(=O)N[C@@H](CC(C)C)C(=O)N[C@@H](CO)C(=O)N[C@@H]([C@@H](C)O)C(=O)N1)C(C)C)C(=O)N[C@@H](CO)C(=O)N[C@@H](CCC(N)=O)C(=O)N[C@@H](CCC(=O)O)C(=O)N[C@@H](CC(C)C)C(=O)N[C@@H](Cc1c[nH]cn1)C(=O)N[C@@H](CCCCN)C(=O)N[C@@H](CCC(N)=O)C(=O)N[C@H](C(=O)N[C@@H](Cc1ccc(O)cc1)C(=O)N1CCC[C@H]1C(=O)N[C@@H](CCCN=C(N)N)C(=O)N[C@H](C(=O)N[C@@H](CC(N)=O)C(=O)N[C@H](C(=O)NCC(=O)N[C@@H](CO)C(=O)NCC(=O)N[C@H](C(=O)N1CCC[C@H]1C(N)=O)[C@@H](C)O)[C@@H](C)O)[C@@H](C)O)[C@@H](C)O` (HELM PEPTIDE1{C.S.N.L.S.T.C.V.L.G.K.L.S.Q.E.L.H.K.Q.T.Y.P.R.T.N.T.G.S.G.T.P.[am]}$PEPTIDE1,PEPTIDE1,1:R3-7:R3$$$V2.0), the Hypocalcemic activity is reported as 8000 IU mg-1. The value for `CC(C)C[C@H](NC(=O)[C@H](CCCCN)NC(=O)CNC(=O)[C@H](CC(C)C)NC(=O)[C@@H](NC(=O)[C@@H]1CSSC[C@H](N)C(=O)N[C@@H](CO)C(=O)N[C@@H](CC(N)=O)C(=O)N[C@@H](CC(C)C)C(=O)N[C@@H](CO)C(=O)N[C@@H]([C@@H](C)O)C(=O)N1)C(C)C)C(=O)N[C@@H](CO)C(=O)N[C@@H](CCC(N)=O)C(=O)N[C@@H](CCC(=O)O)C(=O)N[C@@H](CC(C)C)C(=O)N[C@@H](Cc1c[nH]cn1)C(=O)N[C@@H](CCCCN)C(=O)N[C@H](C(=O)N[C@@H](Cc1ccc(O)cc1)C(=O)N1CCC[C@H]1C(=O)N[C@@H](CCCN=C(N)N)C(=O)N[C@H](C(=O)N[C@@H](CC(N)=O)C(=O)N[C@H](C(=O)NCC(=O)N[C@@H](CO)C(=O)NCC(=O)N[C@H](C(=O)N1CCC[C@H]1C(N)=O)[C@@H](C)O)[C@@H](C)O)[C@@H](C)O)[C@@H](C)O` (HELM PEPTIDE1{C.S.N.L.S.T.C.V.L.G.K.L.S.Q.E.L.H.K.T.Y.P.R.T.N.T.G.S.G.T.P.[am]}$PEPTIDE1,PEPTIDE1,1:R3-7:R3$$$V2.0) was 6400 IU mg-1; that for `CC(C)C[C@H](NC(=O)[C@H](CCCCN)NC(=O)CNC(=O)[C@H](CC(C)C)NC(=O)[C@@H](NC(=O)[C@@H]1CSSC[C@H](N)C(=O)N[C@@H](CO)C(=O)N[C@@H](CC(N)=O)C(=O)N[C@@H](CC(C)C)C(=O)N[C@@H](CO)C(=O)N[C@@H]([C@@H](C)O)C(=O)N1)C(C)C)C(=O)N[C@@H](CO)C(=O)N[C@@H](CCC(N)=O)C(=O)N[C@@H](CCC(=O)O)C(=O)N[C@@H](CC(C)C)C(=O)N[C@@H](Cc1c[nH]cn1)C(=O)N[C@@H](CCCCN)C(=O)N[C@@H](CC(C)C)C(=O)N[C@@H](CCC(N)=O)C(=O)N[C@H](C(=O)N1CCC[C@H]1C(=O)N[C@@H](CCCN=C(N)N)C(=O)N[C@H](C(=O)N[C@@H](CC(N)=O)C(=O)N[C@H](C(=O)NCC(=O)N[C@@H](CO)C(=O)NCC(=O)N[C@H](C(=O)N1CCC[C@H]1C(N)=O)[C@@H](C)O)[C@@H](C)O)[C@@H](C)O)[C@@H](C)O` (HELM PEPTIDE1{C.S.N.L.S.T.C.V.L.G.K.L.S.Q.E.L.H.K.L.Q.T.P.R.T.N.T.G.S.G.T.P.[am]}$PEPTIDE1,PEPTIDE1,1:R3-7:R3$$$V2.0) was 5200 IU mg-1; that for `CC(C)C[C@H](NC(=O)[C@H](CCCCN)NC(=O)CNC(=O)[C@H](CC(C)C)NC(=O)[C@@H](NC(=O)[C@@H]1CSSC[C@H](N)C(=O)N[C@@H](CO)C(=O)N[C@@H](CC(N)=O)C(=O)N[C@@H](CC(C)C)C(=O)N[C@@H](CO)C(=O)N[C@@H]([C@@H](C)O)C(=O)N1)C(C)C)C(=O)N[C@@H](CO)C(=O)N[C@@H](CCC(N)=O)C(=O)N[C@@H](CCC(=O)O)C(=O)N[C@@H](CC(C)C)C(=O)N[C@@H](Cc1c[nH]cn1)C(=O)N[C@@H](CCCCN)C(=O)N[C@@H](CC(C)C)C(=O)N[C@H](C(=O)N[C@@H](Cc1ccc(O)cc1)C(=O)N1CCC[C@H]1C(=O)N[C@@H](CCCN=C(N)N)C(=O)N[C@H](C(=O)N[C@@H](CC(N)=O)C(=O)N[C@H](C(=O)NCC(=O)N[C@@H](CO)C(=O)NCC(=O)N[C@H](C(=O)N1CCC[C@H]1C(N)=O)[C@@H](C)O)[C@@H](C)O)[C@@H](C)O)[C@@H](C)O` (HELM PEPTIDE1{C.S.N.L.S.T.C.V.L.G.K.L.S.Q.E.L.H.K.L.T.Y.P.R.T.N.T.G.S.G.T.P.[am]}$PEPTIDE1,PEPTIDE1,1:R3-7:R3$$$V2.0) was 4000 IU mg-1. Regarding `CC(C)C[C@H](NC(=O)[C@H](CCCCN)NC(=O)CNC(=O)[C@H](CC(C)C)NC(=O)[C@@H](NC(=O)[C@@H]1CSSC[C@H](N)C(=O)N[C@@H](CO)C(=O)N[C@@H](CC(N)=O)C(=O)N[C@@H](CC(C)C)C(=O)N[C@@H](CO)C(=O)N[C@@H]([C@@H](C)O)C(=O)N1)C(C)C)C(=O)N[C@@H](CO)C(=O)N[C@@H](CCC(N)=O)C(=O)N[C@@H](CCC(=O)O)C(=O)N[C@@H](CC(C)C)C(=O)N[C@@H](Cc1c[nH]cn1)C(=O)N[C@@H](CCCCN)C(=O)N[C@@H](Cc1ccc(O)cc1)C(=O)N1CCC[C@H]1C(=O)N[C@@H](CCCN=C(N)N)C(=O)N[C@H](C(=O)N[C@@H](CC(N)=O)C(=O)N[C@H](C(=O)NCC(=O)N[C@@H](CO)C(=O)NCC(=O)N[C@H](C(=O)N1CCC[C@H]1C(N)=O)[C@@H](C)O)[C@@H](C)O)[C@@H](C)O` (HELM PEPTIDE1{C.S.N.L.S.T.C.V.L.G.K.L.S.Q.E.L.H.K.Y.P.R.T.N.T.G.S.G.T.P.[am]}$PEPTIDE1,PEPTIDE1,1:R3-7:R3$$$V2.0), the Hypocalcemic activity is 7100 IU mg-1. Then `CC(C)C[C@H](NC(=O)[C@H](CCCCN)NC(=O)CNC(=O)[C@H](CC(C)C)NC(=O)[C@@H](NC(=O)[C@@H]1CSSC[C@H](N)C(=O)N[C@@H](CO)C(=O)N[C@@H](CC(N)=O)C(=O)N[C@@H](CC(C)C)C(=O)N[C@@H](CO)C(=O)N[C@@H]([C@@H](C)O)C(=O)N1)C(C)C)C(=O)N[C@@H](CO)C(=O)N[C@@H](CCC(N)=O)C(=O)N[C@@H](CCC(=O)O)C(=O)N[C@@H](CC(C)C)C(=O)N[C@@H](Cc1c[nH]cn1)C(=O)N[C@@H](CCCCN)C(=O)N[C@@H](CC(C)C)C(=O)N[C@@H](CCC(N)=O)C(=O)N[C@H](C(=O)N[C@@H](Cc1ccc(O)cc1)C(=O)N1CCC[C@H]1C(=O)N[C@@H](CCCNC(=N)N)C(=O)N[C@H](C(=O)N[C@@H](CC(N)=O)C(=O)N[C@H](C(=O)NCC(=O)N[C@@H](CO)C(=O)NCC(=O)N[C@H](C(=O)N1CCC[C@H]1C(N)=O)[C@@H](C)O)[C@@H](C)O)[C@@H](C)O)[C@@H](C)O` [CALCITONIN SALMON], with 4500 IU mg-1; and `CC(C)C[C@H](NC(=O)[C@H](CCCCN)NC(=O)CNC(=O)[C@H](CC(C)C)NC(=O)[C@@H](NC(=O)[C@@H]1CSSC[C@H](N)C(=O)N[C@@H](CO)C(=O)N[C@@H](CC(N)=O)C(=O)N[C@@H](CC(C)C)C(=O)N[C@@H](CO)C(=O)N[C@@H]([C@@H](C)O)C(=O)N1)C(C)C)C(=O)N[C@@H](CO)C(=O)N[C@@H](CCC(N)=O)C(=O)N[C@@H](CCC(=O)O)C(=O)N[C@@H](CC(C)C)C(=O)N[C@@H](Cc1c[nH]cn1)C(=O)N[C@@H](CCCCN)C(=O)N1CCC[C@H]1C(=O)N[C@@H](CCCN=C(N)N)C(=O)N[C@H](C(=O)N[C@@H](CC(N)=O)C(=O)N[C@H](C(=O)NCC(=O)N[C@@H](CO)C(=O)NCC(=O)N[C@H](C(=O)N1CCC[C@H]1C(N)=O)[C@@H](C)O)[C@@H](C)O)[C@@H](C)O` (HELM PEPTIDE1{C.S.N.L.S.T.C.V.L.G.K.L.S.Q.E.L.H.K.P.R.T.N.T.G.S.G.T.P.[am]}$PEPTIDE1,PEPTIDE1,1:R3-7:R3$$$V2.0), with 6300 IU mg-1.
